Test results as given in US20240317708A1, “INHIBITORS OF TRANSGLUTAMINASES” (ZEDIRA GMBH, priority 2021, published 2024).

Columns and labels:
[1] = Log D shake flask method (octanol / PBS pH 7.4, HPLC); type: physicochemical; settings: octanol/phosphate-buffered saline (PBS); octanol / PBS pH 7.4, shake flask
Method: In order to classify the inventive compounds according to their lipophilicity, Log D values (distribution coefficient) were determined by means of the well-established shake flask method, measuring the partition of a compound between an octanol and phosphate-buffered saline (PBS, pH 7.4) by HPLC.

[2] = target: T1, recombinant human transglutaminase 2 (Homo sapiens, UniProt P21980); test: Transglutaminase assay (dansylcadaverine incorporation into dimethylcasein, DCC-assay); type: biochemical; settings: recombinant human TG2 10 nM, dansylcadaverine/dimethylcasein, 37° C.
T1 construct: purchased Zedira T022
T1 sequence (P21980 1-687): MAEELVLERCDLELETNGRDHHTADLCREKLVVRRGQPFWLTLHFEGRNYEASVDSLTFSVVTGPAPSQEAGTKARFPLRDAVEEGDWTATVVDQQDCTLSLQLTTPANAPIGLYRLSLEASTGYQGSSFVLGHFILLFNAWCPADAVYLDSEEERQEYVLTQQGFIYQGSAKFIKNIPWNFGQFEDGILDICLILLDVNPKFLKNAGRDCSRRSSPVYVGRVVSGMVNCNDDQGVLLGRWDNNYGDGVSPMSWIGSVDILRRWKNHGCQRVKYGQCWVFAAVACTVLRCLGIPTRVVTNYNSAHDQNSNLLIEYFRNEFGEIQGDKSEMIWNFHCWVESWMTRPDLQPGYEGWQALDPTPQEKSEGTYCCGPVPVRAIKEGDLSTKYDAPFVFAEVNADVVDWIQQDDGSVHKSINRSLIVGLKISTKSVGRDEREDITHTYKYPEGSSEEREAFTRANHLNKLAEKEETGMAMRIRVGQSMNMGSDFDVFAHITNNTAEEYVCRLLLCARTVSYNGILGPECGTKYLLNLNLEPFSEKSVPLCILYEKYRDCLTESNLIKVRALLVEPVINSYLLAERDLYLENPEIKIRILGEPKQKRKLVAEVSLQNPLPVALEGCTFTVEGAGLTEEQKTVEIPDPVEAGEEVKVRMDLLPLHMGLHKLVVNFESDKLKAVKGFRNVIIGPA
Method: For the determination of potency of inhibitors against tissue transglutaminase, the incorporation of dansylcadaverine into dimethylcasein (Zedira product T036, Lorand et al., Anal Biochem, 1971, 44:221-31) was measured using recombinant human transglutaminase 2 (Zedira Product T022).
The tissue transglutaminase is diluted in buffer (50 mM Tris-HCl, 7.5 mM CaCl2, 150 mM NaCl, pH=7.4). The final concentration of TG2 in the assay is 10 nM.
A 10 mM inhibitor stock solution is prepared in DMSO, and from this a serial 1:2-fold dilution series is prepared also in DMSO. Each of the initial dilutions is subsequently diluted 1:50-fold with buffer (50 mM Tris-HCl, 7.5 mM CaCl2, 150 mM NaCl, pH=7.4) to yield the final working dilutions containing 2% (v/v) DMSO.
15 μl of inhibitor working dilution are added per well of a 96 well microtiter plate. As control, 15 μl of a 2% (v/v) DMSO solution prepared using the buffer mentioned above are added per well.
Immediately before starting the assay, 600 μl transglutaminase working solution are added to 11.4 ml assay buffer (50 mM Tris-HCl, 10 mM CaCl2, 10 mM glutathione, 2.5% glycerol, 16.7 μM dansylcadaverine, 4 μM N,N-dimethylcasein, 200 mM NaCl, pH=8.0). 285 μl of this reaction mix are added per well containing the inhibitor.
Increase in fluorescence is measured using λex=330 nm and λem=500 nm at 37° C. for 30 min. A slope of the increase in fluorescence between 20 and 30 min is calculated for determination of the IC50 value (inhibitor concentration at which 50% of the initial activity is blocked).
Analysis of enzymatic activity is performed by calculation of the slope of an increase in fluorescence intensity. IC50 values are calculated by plotting the enzymatic activity (as percentage from control containing 2% DMSO instead of inhibitor) against the inhibitor concentration. IC50 is defined as the inhibitor concentration blocking 50% of initial enzyme activity.

[3] = Caco-2 permeability assay (CacoReady kit); type: in vitro ADME; settings: human
Method: Permeability coefficients (Papp values) were obtained from Caco-2 barrier studies predicting oral/intestinal bioavailability of the tested compounds. The assays were performed by using CacoReady™ ready-to-use kits from ReadyCell according to the manufacturers protocol.

Row | Compound | logD [1] | IC50 [2] | Papp [3]
1 | O=C(/C=C/CC[C@H](NC(=O)c1cc2ccccc2nn1)C(=O)Nc1cccn(CC(=O)NC23CC(C2)C3)c1=O)NC1CC1 [III-145, (S,E)-N7-(1-(2-(bicyclo[1.1.1]pentan-1-ylamino)-2-oxoethyl)-2-oxo-1,2-dihydropyridin-3-yl)-6-(cinnoline-3-carboxamido)-N1-cyclopropylhept-2-enediamide] | < 1 | 25 to 250 nM | < 1 ×10⁻⁶ cm/s
2 | COC(=O)/C=C/CC[C@H](NC(=O)c1cncn1C)C(=O)Nc1cccn(CC(=O)N[C@H]2C[C@H]3CC[C@]2(C)C3(C)C)c1=O [III-60, (S,E)-methyl 6-(1-methyl-1H-imidazole-5-carboxamido)-7-oxo-7-(2-oxo-1-(2-oxo-2-((1R,2S,4R)-1,7,7-trimethylbicyclo[2.2.1]heptan-2-ylamino)ethyl)-1,2-dihydropyridin-3-ylamino)hept-2-enoate] | 3 to 5 | < 25 nM | < 1 ×10⁻⁶ cm/s
3 | COC(=O)/C=C/CC[C@H](NC(=O)[C@H]1COCCN1)C(=O)Nc1cccn(CC(=O)NC2C3CC4CC(C3)CC2C4)c1=O (stereo partly drawn) [III-31, (S,E)-methyl 7-(1-(2-(2-adamantylamino)-2-oxoethyl)-2-oxo-1,2-dihydropyridin-3-ylamino)-6-((R)-morpholine-3-carboxamido)-7-oxohept-2-enoate] | 1 to 3 | 25 to 250 nM | < 1 ×10⁻⁶ cm/s
4 | COC(=O)/C=C/CC[C@H](NC(=O)c1oc2ccccc2c1C)C(=O)Nc1cccn(CC(=O)NC2CC3CCC2CC3)c1=O (stereo partly drawn) [III-67, (6S,E)-methyl 7-(1-(2-(bicyclo[2.2.2]octan-2-ylamino)-2-oxoethyl)-2-oxo-1,2-dihydropyridin-3-ylamino)-6-(3-methylbenzofuran-2-carboxamido)-7-oxohept-2-enoate] | 3 to 5 | < 25 nM | 1 to 10 ×10⁻⁶ cm/s
5 | COC(=O)/C=C/CC[C@H](NC(=O)c1cnnn1C)C(=O)Nc1cccn(CC(=O)N[C@@H]2C[C@@H]3CC[C@H]2C3)c1=O [III-116, (S,E)-methyl 7-(1-(2-((1S,2R,4R)-bicyclo[2.2.1]heptan-2-ylamino)-2-oxoethyl)-2-oxo-1,2-dihydropyridin-3-ylamino)-6-(1-methyl-1H-1,2,3-triazole-5-carboxamido)-7-oxohept-2-enoate] | < 1 | < 25 nM | < 1 ×10⁻⁶ cm/s
6 | COC(=O)/C=C/CC[C@H](NC(=O)c1sc(C(F)(F)F)nc1C)C(=O)Nc1cccn(CC(=O)NC23CC4(C)CC(C)(CC(C)(C4)C2)C3)c1=O [III-95, (S,E)-methyl 7-(1-(2-(3,5,7-trimethyl-1-adamantylamino)-2-oxoethyl)-2-oxo-1,2-dihydropyridin-3-ylamino)-6-(4-methyl-2-(trifluoromethyl)thiazole-5-carboxamido)-7-oxohept-2-enoate] | 3 to 5 | < 25 nM | 1 to 10 ×10⁻⁶ cm/s
7 | COC(=O)/C=C/CC[C@H](NC(=O)c1noc(C)n1)C(=O)Nc1cccn(CC(=O)NC23CC(C2)C3)c1=O [III-168, (S,E)-methyl 7-(1-(2-(bicyclo[1.1.1]pentan-1-ylamino)-2-oxoethyl)-2-oxo-1,2-dihydropyridin-3-ylamino)-6-(5-methyl-1,2,4-oxadiazole-3-carboxamido)-7-oxohept-2-enoate] | < 1 | 250 to 1500 nM | < 1 ×10⁻⁶ cm/s
8 | COC(=O)/C=C/CC[C@H](NC(=O)c1nncs1)C(=O)Nc1cccn(CC(=O)NC23CC(C2)C3)c1=O [III-171, (S,E)-methyl 7-(1-(2-(bicyclo[1.1.1]pentan-1-ylamino)-2-oxoethyl)-2-oxo-1,2-dihydropyridin-3-ylamino)-7-oxo-6-(1,3,4-thiadiazole-2-carboxamido)hept-2-enoate] | < 1 | 25 to 250 nM | < 1 ×10⁻⁶ cm/s
9 | COC(=O)/C=C/CC[C@H](NC(=O)c1oc2ccccc2c1C)C(=O)Nc1cccn(CC(=O)N(C)C23CC4CC(CC(C4)C2)C3)c1=O [III-47, (S,E)-methyl 7-(1-(2-(1-adamantyl(methyl)amino)-2-oxoethyl)-2-oxo-1,2-dihydropyridin-3-ylamino)-6-(3-methylbenzofuran-2-carboxamido)-7-oxohept-2-enoate] | 3 to 5 | 250 to 1500 nM | 1 to 10 ×10⁻⁶ cm/s
10 | COC(=O)/C=C/CC[C@H](NC(=O)c1oc2ccccc2c1Cl)C(=O)Nc1cccn(CC(=O)NC2C3CC4CC(C3)CC2C4)c1=O (stereo partly drawn) [III-3, (S,E)-methyl 6-(3-chlorobenzofuran-2-carboxamido)-7-(1-(2-(2-adamantylamino)-2-oxoethyl)-2-oxo-1,2-dihydropyridin-3-ylamino)-7-oxohept-2-enoate] | 3 to 5 | < 25 nM | 1 to 10 ×10⁻⁶ cm/s
11 | COC(=O)/C=C/CC[C@H](NC(=O)c1oc2ccccc2c1C)C(=O)Nc1cccn(CC(=O)N[C@@H]2C[C@@H]3C[C@H]([C@H]2C)C3(C)C)c1=O [III-69, (S,E)-methyl 6-(3-methylbenzofuran-2-carboxamido)-7-oxo-7-(2-oxo-1-(2-oxo-2-((1R,2R,3R,5S)-2,6,6-trimethylbicyclo[3.1.1]heptan-3-ylamino)ethyl)-1,2-dihydropyridin-3-ylamino)hept-2-enoate] | 3 to 5 | < 25 nM | 1 to 10 ×10⁻⁶ cm/s
12 | COC(=O)/C=C/CC[C@H](NC(=O)c1cncc(C(=O)OC)c1)C(=O)Nc1cccn(CC(=O)NC2C3CC4CC(C3)CC2C4)c1=O (stereo partly drawn) [III-36, (S,E)-methyl 5-(1-(1-(2-(2-adamantylamino)-2-oxoethyl)-2-oxo-1,2-dihydropyridin-3-ylamino)-7-methoxy-1,7-dioxohept-5-en-2-ylcarbamoyl)nicotinate] | 3 to 5 | 25 to 250 nM | < 1 ×10⁻⁶ cm/s
13 | COC(=O)/C=C/CC[C@H](NC(=O)c1cncc([N+](=O)[O-])c1)C(=O)Nc1cccn(CC(=O)NC2C3CC4CC(C3)CC2C4)c1=O (stereo partly drawn) [III-34, (S,E)-methyl 7-(1-(2-(2-adamantylamino)-2-oxoethyl)-2-oxo-1,2-dihydropyridin-3-ylamino)-6-(5-nitronicotinamido)-7-oxohept-2-enoate] | 3 to 5 | < 25 nM | < 1 ×10⁻⁶ cm/s
14 | COC(=O)/C=C/CC[C@H](NC(=O)c1oc2ccccc2c1C)C(=O)Nc1cccn(CC(=O)N[C@@H]2C[C@@H]3CC[C@H]2C3)c1=O [III-59, (S,E)-methyl 7-(1-(2-((1 S,2R,4R)-bicyclo[2.2.1]heptan-2-ylamino)-2-oxoethyl)-2-oxo-1,2-dihydropyridin-3-ylamino)-6-(3-methylbenzofuran-2-carboxamido)-7-oxohept-2-enoate] | 3 to 5 | < 25 nM | 1 to 10 ×10⁻⁶ cm/s
15 | COC(=O)/C=C/CC[C@H](NC(=O)c1oc2ccccc2c1C)C(=O)Nc1cccn(CC(=O)NC23CC4CC(CC(Br)(C4)C2)C3)c1=O [III-53, (S,E)-methyl 7-(1-(2-(3-bromoadamantan-1-amino)-2-oxoethyl)-2-oxo-1,2-dihydropyridin-3-ylamino)-6-(3-methylbenzofuran-2-carboxamido)-7-oxohept-2-enoate] | 3 to 5 | < 25 nM | 1 to 10 ×10⁻⁶ cm/s
16 | COC(=O)/C=C/CC[C@H](NC(=O)c1sc(Br)cc1Br)C(=O)Nc1cccn(CC(=O)NC2C3CC4CC(C3)CC2C4)c1=O (stereo partly drawn) [III-15, (S,E)-methyl 6-(3,5-dibromothiophene-2-carboxamido)-7-(1-(2-(2-adamantylamino)-2-oxoethyl)-2-oxo-1,2-dihydropyridin-3-ylamino)-7-oxohept-2-enoate] | 3 to 5 | < 25 nM | 1 to 10 ×10⁻⁶ cm/s
